The text below walks through data of US9611256B2, “Alkyne-, azide- and triazole-containing flavonoids as modulators for multidrug resistance in cancers” (The Hong Kong Polytechnic University, priority 2012, dated 2017).

Molecules are shown by their SMILES. Like-named read-outs stand apart in the source and are kept apart here.

For series [1], the system named is P-gp, MRP1 and BCRP transporters. In words: Selectivity for ABC transporters, determined from % of reversion (Tables 1 and 2). The class given is cell-based, human. The settings on record: determined from % of reversion in Table 1 (>80% strongly, 79-50% moderately selective). The essentials:
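Compounds are grouped as acting on one, two or all three of P-gp, MRP1 and BCRP. The basis is percent reversion: 79-50% means moderate selectivity, above 80% strong selectivity.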

A further series can be described thus: in vitro. The settings on record: mouse.
In series [2] the target is T1, MRP1 (Homo sapiens, UniProt P33527). In words: cell-based.
For series [3], the target named is T1, MRP1. Kind of series: Reversal of MRP1-mediated DOX resistance in 2008/MRP1 cells (cell proliferation assay). The settings on record: (IC50 towards L929 or Raw264.7)/(EC50 for reversing drug resistance).
The target of series [4] is T2, BCRP (Homo sapiens, UniProt Q9UNQ0).
T2 sequence (Q9UNQ0 1-655): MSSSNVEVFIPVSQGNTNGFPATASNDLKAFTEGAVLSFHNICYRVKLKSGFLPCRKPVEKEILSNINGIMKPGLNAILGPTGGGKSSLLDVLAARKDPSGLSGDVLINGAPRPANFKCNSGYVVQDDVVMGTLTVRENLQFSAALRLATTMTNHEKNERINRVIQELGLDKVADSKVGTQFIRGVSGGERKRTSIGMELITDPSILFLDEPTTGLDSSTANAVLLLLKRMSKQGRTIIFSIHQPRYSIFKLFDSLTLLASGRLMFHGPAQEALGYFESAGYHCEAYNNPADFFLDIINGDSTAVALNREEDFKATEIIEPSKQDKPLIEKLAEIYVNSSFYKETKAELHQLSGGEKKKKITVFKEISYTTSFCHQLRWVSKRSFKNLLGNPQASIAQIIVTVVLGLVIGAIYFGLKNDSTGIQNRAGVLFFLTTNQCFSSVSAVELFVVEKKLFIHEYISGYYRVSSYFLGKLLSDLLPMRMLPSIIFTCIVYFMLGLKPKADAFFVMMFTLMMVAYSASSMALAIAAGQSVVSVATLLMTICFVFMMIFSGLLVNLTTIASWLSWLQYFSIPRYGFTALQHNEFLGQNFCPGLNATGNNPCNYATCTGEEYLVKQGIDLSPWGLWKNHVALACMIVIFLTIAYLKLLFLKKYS
In words: Reversal of BCRP-mediated topotecan resistance in MCF7-MX100 cells (cell proliferation assay). The settings on record: (IC50 towards L929 or Raw264.7)/(EC50 for reversing drug resistance).

The target of series [5] is T3, P-gp (Homo sapiens, UniProt P08183). Kind of series: cell-based.
The target of series [6] is T1, MRP1. In words: cell-based. This is another data set of the same source.
For series [7], the target named is T1, MRP1. In words: Reversal of MRP1-mediated vincristine resistance in 2008/MRP1 cells (cell proliferation assay). The settings on record: (IC50 towards L929 or Raw264.7)/(EC50 for reversing drug resistance).
The target in series [8] is T3, P-gp. The settings on record: mouse (L929 or Raw264.7) and human (LCC6MDR), 5 days.
Series [9] deals with T2, BCRP. In words: cell-based.
Another series deals with 2008/MRP1. In words: Cell proliferation assay, 2008/MRP1.

T1 sequence (P33527 whole entry): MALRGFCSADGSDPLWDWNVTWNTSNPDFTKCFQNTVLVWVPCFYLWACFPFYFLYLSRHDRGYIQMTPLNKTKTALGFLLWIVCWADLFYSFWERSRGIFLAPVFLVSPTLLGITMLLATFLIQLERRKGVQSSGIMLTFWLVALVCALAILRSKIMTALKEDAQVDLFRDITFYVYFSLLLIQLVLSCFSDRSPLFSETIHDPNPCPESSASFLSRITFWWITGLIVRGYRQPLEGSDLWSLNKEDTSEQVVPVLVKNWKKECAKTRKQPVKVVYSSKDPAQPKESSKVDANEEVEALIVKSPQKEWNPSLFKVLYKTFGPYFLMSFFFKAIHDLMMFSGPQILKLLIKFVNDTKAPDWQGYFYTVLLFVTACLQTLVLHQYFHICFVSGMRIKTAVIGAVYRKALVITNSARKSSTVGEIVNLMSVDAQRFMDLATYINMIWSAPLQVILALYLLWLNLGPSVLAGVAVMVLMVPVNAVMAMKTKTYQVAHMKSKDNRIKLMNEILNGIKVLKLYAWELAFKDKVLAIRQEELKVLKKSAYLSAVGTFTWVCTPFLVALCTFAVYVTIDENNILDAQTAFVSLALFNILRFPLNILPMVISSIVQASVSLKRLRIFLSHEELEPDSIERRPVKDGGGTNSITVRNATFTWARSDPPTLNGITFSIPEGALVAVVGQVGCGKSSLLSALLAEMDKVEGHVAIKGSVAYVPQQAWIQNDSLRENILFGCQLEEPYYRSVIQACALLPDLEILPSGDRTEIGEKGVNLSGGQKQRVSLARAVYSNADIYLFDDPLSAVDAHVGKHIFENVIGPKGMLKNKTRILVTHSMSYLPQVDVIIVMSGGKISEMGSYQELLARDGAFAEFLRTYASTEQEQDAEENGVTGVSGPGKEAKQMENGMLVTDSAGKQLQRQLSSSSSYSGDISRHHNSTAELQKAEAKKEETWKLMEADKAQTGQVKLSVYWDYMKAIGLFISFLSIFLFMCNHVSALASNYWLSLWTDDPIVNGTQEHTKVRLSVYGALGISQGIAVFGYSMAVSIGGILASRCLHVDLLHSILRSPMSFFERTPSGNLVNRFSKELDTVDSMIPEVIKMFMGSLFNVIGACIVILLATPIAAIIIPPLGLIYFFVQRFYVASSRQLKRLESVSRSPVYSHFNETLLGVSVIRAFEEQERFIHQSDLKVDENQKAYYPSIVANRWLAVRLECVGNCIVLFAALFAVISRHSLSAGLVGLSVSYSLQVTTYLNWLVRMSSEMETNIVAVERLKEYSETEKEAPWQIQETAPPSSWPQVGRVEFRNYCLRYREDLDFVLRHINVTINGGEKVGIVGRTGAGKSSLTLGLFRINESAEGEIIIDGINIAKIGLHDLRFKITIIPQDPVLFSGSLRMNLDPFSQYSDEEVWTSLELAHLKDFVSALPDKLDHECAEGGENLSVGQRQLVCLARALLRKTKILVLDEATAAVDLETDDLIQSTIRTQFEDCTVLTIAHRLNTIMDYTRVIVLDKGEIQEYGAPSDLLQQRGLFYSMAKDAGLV
T3 sequence (P08183 whole entry): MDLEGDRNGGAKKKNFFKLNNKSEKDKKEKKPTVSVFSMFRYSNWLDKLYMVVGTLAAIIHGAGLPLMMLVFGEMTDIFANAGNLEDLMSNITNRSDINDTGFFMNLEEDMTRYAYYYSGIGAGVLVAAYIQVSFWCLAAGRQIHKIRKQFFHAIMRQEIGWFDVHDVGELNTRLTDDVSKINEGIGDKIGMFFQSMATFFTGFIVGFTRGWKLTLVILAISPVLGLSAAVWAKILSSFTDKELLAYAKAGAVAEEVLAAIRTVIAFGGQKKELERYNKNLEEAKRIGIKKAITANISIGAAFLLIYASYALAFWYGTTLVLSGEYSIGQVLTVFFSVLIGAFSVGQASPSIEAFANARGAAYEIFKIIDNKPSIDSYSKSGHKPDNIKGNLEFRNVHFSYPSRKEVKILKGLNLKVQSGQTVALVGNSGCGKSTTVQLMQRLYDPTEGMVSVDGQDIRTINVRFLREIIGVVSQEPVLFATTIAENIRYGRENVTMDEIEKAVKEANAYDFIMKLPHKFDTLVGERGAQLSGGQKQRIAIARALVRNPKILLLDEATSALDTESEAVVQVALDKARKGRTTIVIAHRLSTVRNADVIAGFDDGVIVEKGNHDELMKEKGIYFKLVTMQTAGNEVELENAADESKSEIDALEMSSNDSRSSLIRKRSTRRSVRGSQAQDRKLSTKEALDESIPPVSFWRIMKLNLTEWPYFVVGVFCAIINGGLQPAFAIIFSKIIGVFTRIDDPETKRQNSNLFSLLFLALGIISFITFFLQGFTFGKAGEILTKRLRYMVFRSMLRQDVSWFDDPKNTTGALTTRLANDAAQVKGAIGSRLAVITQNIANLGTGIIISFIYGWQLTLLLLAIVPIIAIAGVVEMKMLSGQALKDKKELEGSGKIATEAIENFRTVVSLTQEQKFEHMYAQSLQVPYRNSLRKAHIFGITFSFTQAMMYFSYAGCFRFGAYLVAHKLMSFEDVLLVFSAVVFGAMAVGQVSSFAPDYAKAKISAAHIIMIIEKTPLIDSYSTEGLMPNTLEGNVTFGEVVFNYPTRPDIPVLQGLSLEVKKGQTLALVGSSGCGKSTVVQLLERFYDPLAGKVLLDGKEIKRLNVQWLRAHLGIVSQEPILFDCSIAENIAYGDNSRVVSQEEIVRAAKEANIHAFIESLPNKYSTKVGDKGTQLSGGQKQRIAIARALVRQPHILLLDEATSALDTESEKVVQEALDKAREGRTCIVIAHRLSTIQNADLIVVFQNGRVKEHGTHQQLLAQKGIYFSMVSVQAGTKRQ

On to `COCOc1cc(O)c2c(=O)cc(-c3ccc(OCCCc4cn(CCOCCOc5ccc(-c6cc(=O)c7ccccc7o6)cc5)nn4)cc3)oc2c1` [Ac4(5OH)Az1, 5-Hydroxy-7-(methoxymethoxy)-2-(4-(3-(1-(2-(2-(4-(4-oxo-4H-chromen-2-yl)phenoxy)ethoxy)ethyl)-1H-1,2,3-triazol-4-yl)propoxy)phenyl)-4H-chromen-4-one], for which the “Selectivity for ABC transporters (P-gp, MRP1, BCRP)” value (“Selectivity … (P-gp, MRP1, BCRP)” below) in [1] is “MRP1- and BCRP-dual selectivity”. In “in vitro”, the IC50 at 5 days was above 100000 nM. On MRP1 [2], the EC50 turned out to be 110 ± 15 nM. Also, the “DOX resistance of 2008/MRP1 Therapeutic index” value on MRP1 [3] is above 909.1. At BCRP [4], the “Topotecan resistance of MCF7-MX100 Therapeutic index” value is above 1960.8.
In “in vitro”, `Cc1ccc2oc(-c3ccc(OCCCCc4cn(CCOCCOc5ccc(-c6cc(=O)c7cc(F)ccc7o6)cc5)nn4)cc3)cc(=O)c2c1` [Ac5Az7, 6-Fluoro-2-(4-(2-(2-(4-(4-(4-(6-methyl-4-oxo-4H-chromen-2-yl)phenoxy)butyl)-1H-1,2,3-triazol-1-yl)ethoxy)ethoxy)phenyl)-4H-chromen-4-one] had an IC50 at 5 days above 100000 nM. The same compound came in with an EC50 at P-gp [5] of 157 nM.
With `Cc1ccc2oc(-c3ccc(OCCCCc4cn(CCOCCOc5ccc6c(=O)cc(-c7ccccc7)oc6c5)nn4)cc3)cc(=O)c2c1` [Ac5Az11, 6-Methyl-2-(4-(4-(1-(2-(2-((4-oxo-2-phenyl-4H-chromen-7-yl)oxy)ethoxy)ethyl)-1H-1,2,3-triazol-4-yl)butoxy)phenyl)-4H-chromen-4-one], in the series “in vitro”, the IC50 at 5 days was above 100000 nM. In addition, the EC50 on P-gp [5] stood at 160 ± 21 nM; at MRP1 [6], 135 ± 10 nM.
With `O=c1cc(-c2ccc(OCCOCCn3cc(CCCCOc4ccc5c(=O)cc(-c6ccccc6)oc5c4)nn3)cc2)oc2ccccc12` [Ac12Az1, 7-(4-(1-(2-(2-(4-(4-Oxo-4H-chromen-2-yl)phenoxy)ethoxy)ethyl)-1H-1,2,3-triazol-4-yl)butoxy)-2-phenyl-4H-chromen-4-one], in [1], the “Selectivity … (P-gp, MRP1, BCRP)” value is “MRP1- and BCRP-dual selectivity”. The IC50 at 5 days in “in vitro” was above 100000 nM. The same compound returned an EC50 on MRP1 [6] of 84 ± 11 nM. At MRP1 [7], the “Vincristine resistance of 2008/MRP1 Therapeutic index” value is listed as above 1190.5.
Consider `O=c1cc(-c2ccccc2)oc2cc(OCCCCc3cn(CCOCCOc4ccc(-c5cc(=O)c6cc(F)ccc6o5)cc4)nn3)ccc12` [Ac12Az7, 6-Fluoro-2-(4-(2-(2-(4-(4-((4-oxo-2-phenyl-4H-chromen-7-yl)oxy)butyl)-1H-1,2,3-triazol-1-yl)ethoxy)ethoxy)phenyl)-4H-chromen-4-one], for which the “Selectivity … (P-gp, MRP1, BCRP)” value in series [1] was “MRP1- and BCRP-dual selectivity”. The same compound showed an IC50 at 5 days in the series “in vitro” above 100000 nM. On MRP1 [6], this compound came in with an EC50 of 93.3 ± 20.5 nM. For the same compound, the “DOX resistance of 2008/MRP1 Therapeutic index” value at MRP1 [3] is reported as above 580.4. Further, the “Vincristine resistance of 2008/MRP1 Therapeutic index” value at MRP1 [7] is recorded as above 1071.8.
As for `O=c1cc(-c2ccccc2)oc2cc(OCCCCc3cn(CCOCCOc4ccc(-c5oc6ccccc6c(=O)c5OCc5ccccc5)cc4)nn3)ccc12` [Ac12Az10, 3-(Benzyloxy)-2-(4-(2-(2-(4-(4-((4-oxo-2-phenyl-4H-chromen-7-yl)oxy)butyl)-1H-1,2,3-triazol-1-yl)ethoxy)ethoxy)phenyl)-4H-chromen-4-one], the “Selectivity … (P-gp, MRP1, BCRP)” value in series [1] was “Pgp- and BCRP-dual selectivity”. Besides, at P-gp [8], the “Paclitaxel resistance of LCC6MDR Therapeutic index” value is above 303.0. For the same compound, in the series “in vitro”, the IC50 at 5 days was above 100000 nM. For the same compound, the midpoint of the response at P-gp [5], the EC50, lay at 330 nM. The “Topotecan resistance of MCF7-MX100 Therapeutic index” value on BCRP [4] is above 2924.0.
In the case of `O=c1cc(-c2ccccc2)oc2cc(OCCCCc3cn(CCOCCOc4ccc5c(=O)cc(-c6ccccc6)oc5c4)nn3)ccc12` [Ac12Az11, 7-(2-(2-(4-(4-((4-Oxo-2-phenyl-4H-chromen-7-yl)oxy)butyl)-1H-1,2,3-triazol-1-yl)ethoxy)ethoxy)-2-phenyl-4H-chromen-4-one], the “Selectivity … (P-gp, MRP1, BCRP)” value in series [1] was “MRP1- and BCRP-dual selectivity”. The IC50 at 5 days in “in vitro” was above 100000 nM. Moreover, the values for the EC50 on MRP1 [6] and on BCRP [9] were 169 nM and 30 nM, respectively. Further, the “DOX resistance of 2008/MRP1 Therapeutic index” value at MRP1 [3] is recorded as above 877.2. Further, the “Vincristine resistance of 2008/MRP1 Therapeutic index” value on MRP1 [7] was above 591.7.
Turning to `O=c1cc(-c2ccccc2)oc2cc(OCCCCc3cn(CCOCCOCCOc4ccc5c(=O)cc(-c6ccccc6)oc5c4)nn3)ccc12` [Ac12Az12, 7-(2-(2-(2-(4-(4-((4-Oxo-2-phenyl-4H-chromen-7-yl)oxy)butyl)-1H-1,2,3-triazol-1-yl)ethoxy)ethoxy)ethoxy)-2-phenyl-4H-chromen-4-one], the “Selectivity … (P-gp, MRP1, BCRP)” value in series [1] was “MRP1- and BCRP-dual selectivity”. In “in vitro”, this compound displayed an IC50 at 5 days above 100000 nM. The results for the EC50 on MRP1 [6] and at BCRP [9] were 168 nM and 34 nM, respectively. Besides, the “DOX resistance of 2008/MRP1 Therapeutic index” value at MRP1 [3] was above 740.7. Besides, the “Vincristine resistance of 2008/MRP1 Therapeutic index” value on MRP1 [7] is recorded as above 595.2.
For `O=c1cc(-c2ccccc2)oc2cc(OCCOCc3cn(CCOCCOc4ccc(-c5oc6ccccc6c(=O)c5OCc5ccccc5)cc4)nn3)ccc12` [Ac13Az10, 3-(Benzyloxy)-2-(4-(2-(2-(4-((2-((4-oxo-2-phenyl-4H-chromen-7-yl)oxy)ethoxy)methyl)-1H-1,2,3-triazol-1-yl)ethoxy)ethoxy)phenyl)-4H-chromen-4-one], the “Selectivity … (P-gp, MRP1, BCRP)” value in series [1] is “Pgp- and BCRP-dual selectivity”. The “Paclitaxel resistance of LCC6MDR Therapeutic index” value at P-gp [8] was above 294.1. Besides, the IC50 at 5 days in the series “in vitro” was above 100000 nM. Besides, a half-maximal response on P-gp [5] (EC50) required 340 nM. The “Topotecan resistance of MCF7-MX100 Therapeutic index” value on BCRP [4] is given as above 845.3.
As to `O=c1cc(-c2ccc(OCCOCCOCCn3cc(CN(Cc4ccccc4)Cc4cn(CCOCCOCCOc5ccc(-c6cc(=O)c7ccccc7o6)cc5)nn4)nn3)cc2)oc2ccccc12` [Ac15Az2, 2,2′-((((((((4,4′-((Benzylazanediyl)bis(methylene))bis(1H-1,2,3-triazole-4,1-diyl))bis(ethane-2,1-diyl))bis(oxy))bis(ethane-2,1-diyl))bis(oxy))bis(ethane-2,1-diyl))bis(oxy))bis(4,1-phenylene))bis(4H-chromen-4-one)], the “Selectivity … (P-gp, MRP1, BCRP)” value in series [1] is recorded as “mono-MRP1 selectivity”. In addition, the IC50 at 5 days in the series “in vitro” was above 100000 nM. Further, the results for the EC50 at MRP1 [2] and on MRP1 [6] were 530 ± 120 nM and 550 nM, respectively. For the same compound, the “DOX resistance of 2008/MRP1 Therapeutic index” value at MRP1 [3] was above 188.7. Further, at MRP1 [7], the “Vincristine resistance of 2008/MRP1 Therapeutic index” value is above 181.8.
In the case of `Cc1ccc2oc(-c3ccc(OCCOCCOCCn4cc(CN(Cc5ccccc5)Cc5cn(CCOCCOCCOc6ccc(-c7cc(=O)c8cc(C)ccc8o7)cc6)nn5)nn4)cc3)cc(=O)c2c1` [Ac15Az3, 2,2′-((((((((4,4′-((Benzylazanediyl)bis(methylene))bis(1H-1,2,3-triazole-4,1-diyl))bis(ethane-2,1-diyl))bis(oxy))bis(ethane-2,1-diyl))bis(oxy))bis(ethane-2,1-diyl))bis(oxy))bis(4,1-phenylene))bis(6-methyl-4H-chromen-4-one)], in series [1], the “Selectivity … (P-gp, MRP1, BCRP)” value was “MRP1- and BCRP-dual selectivity”. Further, the IC50 at 5 days in “in vitro” was above 100000 nM. Also, the EC50 at MRP1 [6] came to 535 ± 62.6 nM; at BCRP [9], 36 ± 4 nM. The “DOX resistance of 2008/MRP1 Therapeutic index” value on MRP1 [3] is reported as above 210.5. The “Vincristine resistance of 2008/MRP1 Therapeutic index” value on MRP1 [7] is above 186.9.
As for `CC[C@]1(O)C[C@H]2CN(CCc3c([nH]c4ccccc34)[C@@](C(=O)OC)(c3cc4c(cc3OC)N(C=O)[C@H]3[C@@](O)(C(=O)OC)[C@H](OC(C)=O)[C@]5(CC)C=CCN6CC[C@]43[C@@H]65)C2)C1` [vincristine], in the series with 2008/MRP1 (Homo sapiens, 2008/MRP1, read-out: IC50 of anticancer drug, 2008/MRP1), the IC50 was determined as 123 nM. The “fold more resistance of 2008/MRP1 than parental 2008/P” value in the series on 2008/MRP1 (without modulator) is listed as “about 2.4 fold”.

The term EC50 denotes the concentration that produces a half-maximal response. Higher therefore signals a need for much substance.
